# Measurements taken from US6383528B1 (Yuyu International Co., Ltd., priority 1997, dated 2002).
# Experiments:
# [1] = test system: mouse acute thrombus model; assay: Recovery rate in the mouse acute thrombus model (collagen + epinephrine); type: in vivo; settings: for Recovered Mouse, Number of Mouse: recovery within 15 minutes
# Experimental: An Increase in Recovery Rate in the Mouse Acute Thrombus Model
# One hour after the final administration of the regimen, the mixed solution containing collagen and epinephrine (collagen 1100 μg+epinephrine 110 μg/10 ml of saline solution/kg) was injected into the vein in the tail. The status of paralysis or death from pulmonary infarction, and the recovery therefrom were duly recorded.
# As in the experiment above if the mixed solution comprising collagen and epinephrine was infected into the vein a large of amount of thrombus was generated shortly thereafter with the result of an occlusion in the pulmonary artery. Within one minute after the injection, almost every part of the body was in paralysis with the enlargement of a pupil. Dyspnea occurred followed by a seizure. Within 5 minutes, approximately 70˜80% of the mouse were deceased. As to the remainder, almost every mouse were dead within 15 minutes or in a continued paralysis.
# [2] = test system: thrombus formation at the cotton thread in the A-V Shunt; assay: Thrombus formation by arterio-venous shunt (A-V Shunt); type: in vivo; settings: female rats; for Thrombus Dry Condition Suppression Rate (%) / Thrombus Wet Condition Suppression Rate (%): vs control rats
# Experimental: Thrombus Formation by Arterio-Venous Shunt (A-V Shunt hereinafter) and the Effects on the Platelet Aggregation […] Thereafter, Table 7 was tabulated with the measured weights of the thrombus formation at the cotton thread in the A-V Shunt. At this point, the weights of thrombus were measured in terms of the wet weight immediately after the experiment, and dry weight after complete drying.
# [3] = test system: platelet aggregation induced by ADP 3×10^−5M in PRP; assay: Ex vivo platelet aggregation in rats with A-V Shunt; settings: for Aggregation Rate (%) 2 Minutes / Aggregation Rate (%) 3 Minutes / Aggregation Rate (%) Maximum: control maximum set at 100
# Experimental: The Effect on Platelet Aggregation in the A-V Shunt of Rats
# After the administration of the same regimens used in Experiment 3 for the duration of 9 days, the weights of thrombus formations at the A-V Shunt were measured as the sample of the blood therefrom was collected for the purposes of studying the effect on the ex vivo platelet aggregation after the AV-Shunt. In particular, to the PRP (supernatant after the centrifuge of the blood sample for 10 minutes at 200×g) prepared from the respective blood sample, ADP 3×10^−5M, which is the platelets aggregation inducer, were added for the purposes of inducing aggregation.
# In order to study the ex vivo platelet aggregation effect of the rats' blood without A-V Shunt, the concentration of ADP lower than 1×10^−5M was used. With the maximum platelet aggregation rate of rats in the control group with A-V Shunt set at 100, various aggregation rates were compared.
# female rats = assay: Prolongation of the bleeding time (tail incision); type: in vivo; settings: for Bleeding Time: female rats
# Experimental: Prolongation of the Bleeding Time
# One hour after the final administration of the regimen, 250 mg/kg of ketamine was injected into muscle tissue for anesthesia. 2 mm from the tail end was incised with the razor blade, after which the blood therefrom was blotted with the filter paper at the interval of 5 second to the point of the hemorrhage stoppage.
# leukocytes in rat [4] = assay: Leukocyte number and differential ratios after 16 weeks of administration; type: in vivo; settings: rats
# Experimental: Bellefonte, Pa.). […] The changes due to the dosage amount and blending ratio were set as follows. […] On the other hand, one tablet of the Ginkgo biloba extract is 40 mg, 80 mg, 120 mg with a daily dosage of 120 mg to 240 mg. […] [table] […] After anesthesia, blood was collected through the abdominal aorta, and the number of white blood cells were counted using the Coulter Counter. Using the cytochemical dyeing method, the ratios of neutrophil, eosinophil, basophil, macrophage and lymphocytes were measured.
# leukocytes in rat [5] = assay: Leukocyte number and differential ratios after 16 weeks of administration and 2 weeks of withdrawal; type: in vivo; settings: rats
# Experimental: Rats were administered with the same regimens as in Experiment 6 for the duration of 16 weeks, and those with two weeks of withdrawal were separately maintained.
# femur marrow cells [6] = assay: Number of bone marrow cells after 16 weeks of administration; type: in vivo; settings: rats, ticlopidine vs control, combinations vs ticlopidine alone
# Experimental: A Change in the Number of Bone Marrow Cells after the Administration of the Pharmaceutical Composition for the Duration of 16 Weeks. […] Thereafter, the number of bone marrow cells was measured. In detail, for the purposes of measuring the numbers of the precursor cells of leukocytes, the femur part was incised with the elimination of the surrounding muscle tissues. Then, both sides of epiphysis were incised, from which approximately 2 cm of femur was obtained. […] After removing the supernatant, 1 ml of saline solution was added to the precipitated cell layer. […] Then, removing the supernatant once again, 0.5 ml of saline solution was added to the precipitated cell layer and mixed. The drop therefrom was added to the Cytometer, and the number of cells in the RRRRR 5 part (4 corners and the center) was counted. Using the following formula, the number of marrow cells were calculated: Counted Number×50×10×10^3=Number of white blood cell precursor/femur.
# femur marrow cells [7] = assay: Number of bone marrow cells after 16 weeks of administration and 2 weeks of withdrawal; type: in vivo; settings: rats, 16 weeks then 2 weeks of withdrawal; combination 5:2
# Experimental: The Changes in the Number of the Bone Marrow Cells after 16 Weeks of the Administration of the Pharmaceutical Composition, Followed by 2 Weeks of Withdrawal
# Thereafter, the number of bone marrow cells at femur was measured.
# femur marrow cells [8] = assay: Histological examination of the marrow cells after 16 weeks; type: in vivo; settings: rats, femur marrow histology ×400
# Source text: Histological Examination of the Marrow Cells after the Administration of the Pharmaceutical Composition for 16 Weeks […] Thereafter, the marrow cells was histologically examined. […] The femur so extracted was decalcified with the decalcification solution and embedded with paraffin after the ordinary course of the histological process. The femur tissue so embedded with paraffin was sliced at a thickness of 4 μm, followed by hematoxylin and eosins. Thereafter, the slide was examined with the light microscope at 400×.
# femur marrow cells [9] = assay: Histological examination of the marrow cells after 16 weeks and 2 weeks of withdrawal; type: in vivo; settings: rats, 16 weeks then 2 weeks of withdrawal, femur marrow histology
# Source text: Histological Examination of the Marrow Cells after the Administration of the Pharmaceutical Composition for 16 Weeks, Followed by 2 Weeks of Withdrawal
# Thereafter, the marrow cells were histolosically examined.
# [10] = patients, first 3 months of treatment; cited from earlier work
# [11] = test system: platelet aggregation induced by 1×10^−5 M ADP; assay: Ex vivo platelet aggregation suppression effect; settings: female rats, ADP 1×10^−5 M
# Source text: Ex Vivo Platelet Aggregation Suppression Effect
# One hour after the final administration on the specimen, the rats were anesthetized. For preventing blood coagulation, the blood sample was collected using a syringe with the anti-coagulant, 3.8% Sodium Citrate solution. Thereafter, the effects oil the platelet aggregation induced by 1×10^−5 M ADP were studied.
# [12] = 50 mg/kg/day for 9 days, 50 mg/kg/day
# [13] = 50 mg/kg/day for 9 days, listed as Ticlopidine (T), 50 mg/kg/day
# [14] = 100 mg/kg/day for 9 days, 100 mg/kg/day
# [15] = 100 mg/kg/day for 9 days, listed as Ticlopidine (T), 100 mg/kg/day
# [16] = 50 mg/kg/day for 9 days, listed as Ticlopidine (T)
# [17] = 100 mg/kg/day for 9 days, listed as Ticlopidine (T)
# [18] = 16 weeks P.O., ticlopidine 300 mg/kg/day alone or + Ginkgo extract 60/120/240 mg/kg/day, mean ± S.E.
# [19] = 16 weeks P.O. then 2 weeks of withdrawal, 300 or 300 + 120 mg/kg/day, mean ± S.E.
smiles,measurement,setting,value
"Clc1ccccc1CN1CCc2sccc2C1 [Ticlopidine, 5-[(2-chlorophenyl)methyl]-4,5,6,7-tetrahydrothieno[3,2-C]pyridine]","Recovered Mouse, %",[1]; 50 mg/kg/day for 3 days,38%
same,"Recovered Mouse, Number of Mouse",[1]; 50 mg/kg/day for 3 days,6
same,"Recovered Mouse, %",[1]; 100 mg/kg/day for 3 days,47%
same,"Recovered Mouse, Number of Mouse",[1]; 100 mg/kg/day for 3 days,7
same,Thrombus Dry Condition Weight,[2]; 50 mg/kg/day for 9 days,9.53 mg
same,Thrombus Wet Condition Weight,[2]; 50 mg/kg/day for 9 days,35.03 mg
same,Thrombus Dry Condition Suppression Rate (%),[2]; [12],25%
same,Thrombus Wet Condition Suppression Rate (%),[2]; [12],26%
same,Thrombus Dry Condition Suppression Rate (%),[2]; [13],25 ± 21%
same,Thrombus Wet Condition Suppression Rate (%),[2]; [13],26 ± 19%
same,Thrombus Dry Condition Weight,[2]; 100 mg/kg/day for 9 days,8.78 mg
same,Thrombus Wet Condition Weight,[2]; 100 mg/kg/day for 9 days,30.45 mg
same,Thrombus Dry Condition Suppression Rate (%),[2]; [14],31%
same,Thrombus Wet Condition Suppression Rate (%),[2]; [14],36%
same,Thrombus Dry Condition Suppression Rate (%),[2]; [15],31 ± 12%
same,Thrombus Wet Condition Suppression Rate (%),[2]; [15],36 ±10%
same,Time (Minute) Maximum (time to maximum aggregation),[3]; 50 mg/kg/day for 9 days,1.8 min
same,Time (Minute) Total (complete de-aggregation),[3]; 50 mg/kg/day for 9 days,4.33 min
same,Aggregation Rate (%) 2 Minutes,[3]; 50 mg/kg/day for 9 days,74%
same,Aggregation Rate (%) 3 Minutes,[3]; 50 mg/kg/day for 9 days,45%
same,Aggregation Rate (%) Maximum,[3]; 50 mg/kg/day for 9 days,78%
same,Aggregation Rate (%) 2 Minutes,[3]; [16],74.4%
same,Aggregation Rate (%) 3 Minutes,[3]; [16],45.8%
same,Aggregation Rate (%) Maximum,[3]; [16],78.2%
same,Time (Minute) Maximum (time to maximum aggregation),[3]; 100 mg/kg/day for 9 days,1.5 min
same,Time (Minute) Total (complete de-aggregation),[3]; 100 mg/kg/day for 9 days,3.4 min
same,Aggregation Rate (%) 2 Minutes,[3]; 100 mg/kg/day for 9 days,62%
same,Aggregation Rate (%) 3 Minutes,[3]; 100 mg/kg/day for 9 days,21%
same,Aggregation Rate (%) Maximum,[3]; 100 mg/kg/day for 9 days,72%
same,Aggregation Rate (%) 2 Minutes,[3]; [17],62.9%
same,Aggregation Rate (%) 3 Minutes,[3]; [17],21.4%
same,Aggregation Rate (%) Maximum,[3]; [17],72.6%
same,bleeding time increase from that in the control group,female rats; 50 mg/kg,1.5 times
same,bleeding time increase from that in the control group,female rats; 100 mg/kg,2 times
same,Bleeding Time,female rats; 50 mg/kg/day for 5 days,1546 ± 332 s
same,Bleeding Time,female rats; 100 mg/kg/day for 5 days,2023 ± 872 s
same,"eosinophil, basophil, macrophage or lymphocyte compared with the control group",leukocytes in rat [4]; 16 weeks,not significant differences
same,white blood cells in the blood compared with the control group,leukocytes in rat [4]; 16 weeks,slight tendency of a decrease
same,Total Leukocyte (×10^3/μl),"leukocytes in rat [4]; 16 weeks P.O. in drinking water, ticlopidine 300 mg/kg/day alone or + Ginkgo extract 60 (5:1), 120 (5:2), 240 (5:4) mg/kg/day, mean ± S.E.",9.3 ± 1.3 ×10^3/μl
same,Basophil (%),leukocytes in rat [4]; [18],1.7 ± 0.2%
same,Eosinophil (%),leukocytes in rat [4]; [18],2.0 ± 0.4%
same,Lymphocyte (%),leukocytes in rat [4]; [18],80.4 ± 1.6%
same,Macrophage (%),leukocytes in rat [4]; [18],5.5 ± 0.8%
same,Neutrophil (%),leukocytes in rat [4]; [18],10.5 ± 1.1 %
same,Neutrophil (%),"leukocytes in rat [4]; 16 weeks P.O., ticlopidine 300 mg/kg/day alone or + Ginkgo extract 60/120/240 mg/kg/day, mean ± S.E., listed as ticlopidine",10.5±1.1%
same,Basophil (%),leukocytes in rat [5]; [19],0.3 ± 0.1%
same,Eosinophil (%),leukocytes in rat [5]; [19],2.7 ± 0.2%
same,Lymphocyt (%),leukocytes in rat [5]; [19],77.8 ± 0.5%
same,Macrophage (%),leukocytes in rat [5]; [19],3.5 ± 1.0%
same,Neutrophil (%),leukocytes in rat [5]; [19],15.9 ± 1.7 %
same,Total Leukocyte (×10^3/μl),"leukocytes in rat [5]; 16 weeks P.O. then 2 weeks of withdrawal, ticlopidine 300 mg/kg/day alone or + Ginkgo extract 120 mg/kg/day (5:2), mean ± S.E.",10.3 ± 1.2 ×10^3/μl
same,number of neutrophil / leukocytes after withdrawal compared with the control group,leukocytes in rat [5]; 16 weeks then 2 weeks of withdrawal,normal recovery
same,"number of white blood cell precursor at marrow (femur marrow cells, FIG. 1), words",femur marrow cells [6],significant reduction
same,"number of marrow cells at femur (FIG. 2), words",femur marrow cells [7],recovered to the normal level
same,Band-granulocyte,femur marrow cells [8],no change
same,Cellularity (density of the marrow cells),femur marrow cells [8],malignant vacuolation
same,Megakaryocyte,femur marrow cells [8],decreased
same,Myelocyte,femur marrow cells [8],significantly decreased
same,Megakaryocyte,femur marrow cells [9],increased almost to the point of the control group
same,"incidence rate of toxicity (neutropenia, agranulocytosis)",[10],0.8%
same,Suppression Rate (%) (Avg + SD),"[11]; 100 mg/kg/day for 3 days, 100 mg/kg/day",67%
same,Suppression Rate (%) (Avg + SD),"[11]; 100 mg/kg/day for 3 days, listed as Ticlopidine (T), 100 mg/kg/day",67.06 ± 16.25 %
same,Suppression Rate (%) (Avg + SD),"[11]; 200 mg/kg/day for 3 days, 200 mg/kg/day",98%
same,Suppression Rate (%) (Avg + SD),"[11]; 200 mg/kg/day for 3 days, listed as Ticlopidine (T), 200 mg/kg/day",97.97 ± 4.53 %
